# Tests used:
# [1] = Phase solubility study of cladribine in HPβCD solutions; assay type: physicochemical; details: aqueous hydroxypropyl-β-cyclodextrin (HPβCD) solution, aqueous with cosolvent or surfactant or cyclodextrin, thermodynamic from solid; with about 0.14 mole of HPβCD; complexation conditions of EXAMPLE 2; read-out: cladribine maintained dissolved (phase solubility)
# Protocol: Generally, the complexation is conducted with heating, for example at about 45 to about 60° C. for a significant period of time, e.g., at least 6-9 hours; it is believed that even better results can be obtained by heating at up to about 80° C. for up to 24 hours. Excess precipitated cladribine is then removed and the cladribine concentration is subsequently measured. This concentration represents the amount of cladribine solubilized for a given amorphous cyclodextrin concentration. […] Consequently, the data points correspond to the amount of cladribine dissolved in aqueous HPβCD or other amorphous cyclodextrin under the selected conditions; when later lyophilized, the solution yields a complex cladribine-cyclodextrin complex which is an intimate amorphous admixture of (a) an amorphous inclusion complex of cladribine with an amorphous cyclodextrin and (b) amorphous free cladribine associated with amorphous cyclodextrin as a non-inclusion complex. If equilibrium conditions are reached during the complexation, the amorphous cladribine-cyclodextrin complex will be saturated with cladribine.
# A phase solubility study can be carried out as follows. […] The excess, undissolved cladribine is removed by filtration. […] This process is repeated with different known concentrations of HPβCD until several data points are obtained. […]
# [2] = Clinical study, relative bioavailability: plasma cladribine after oral formulations vs subcutaneous administration; assay type: in vivo, human (patients with MS); details: human, sc, 3.0 mg subcutaneous, single dose, n = 12
# Protocol: This study was a 2 center, open-label, randomized, 4-way crossover single dose study using twelve patients with MS. Patients received randomly three different fixed oral doses (3.0 mg) and a fixed subcutaneous dose of 3.0 mg. The four treatment days were separated by a drug-free interval of at least 5 days. In each treatment period, blood samples were collected over a 24-hour period for evaluation of plasma cladribine.
# The plasma concentration of cladribine was measured by a HPLC/MS/MS method. […] The limit of quantification was 100 pg/ml. Analysis of samples was carried out in 16 runs.
# 576 clinical plasma samples were analyzed and concentration values of cladribine were determined.
# [3] = Clinical study, dose response and absolute bioavailability: plasma cladribine after oral doses vs intravenous infusion; assay type: in vivo, human (patients with MS); details: n = 26; for AUC(0-inf) / AUC(0-t) / Cmax / Tmax / half-life: human, plasma; for AUC(0-inf) / AUC(0-t) / Cmax: Geom Mean; for Tmax / half-life: Mean ± SD
# Text: The objective of this study was to assess the systemic availability of cladribine after oral administration in two different fixed oral doses, in comparison with one fixed intravenous administration (reference formulation) in patients with MS (multiple sclerosis), and to evaluate the safety and tolerability of cladribine in this population.
# This study was a 3 center, open-label, randomized, 3-way crossover single dose study using twenty-six patients with MS. […] The three treatment days were separated by a drug-free interval of at least 5 days. In each treatment period blood samples were collected over a 24-hour period for evaluation of plasma cladribine.
# The plasma concentrations of cladribine were measured by a HPLC/MS/MS method. […] The limit of quantification was 100 pg/ml. Analysis of samples was carried out in 16 runs. Except the first run (which had to be rejected because of equipment failure), all other runs could be accepted. No calibrator had to be excluded from fitting of the calibration curve and accuracy of each quality control sample met the GLP requirements.
# 858 clinical plasma samples were analyzed and concentration values of cladribine were determined. The results were compiled and are summarized in the tables below [TABLES VII through X]. In these tables, the following definitions are applicable: Tmax is the time to reach maximum concentration in the plasma; T1/2 is the half-life of cladribine in the plasma; Cmax is the maximum concentration of cladribine in the plasma; AUCinf is the area under the curve for the measured data from zero extrapolated to infinity; AUCt is the area under the curve for the measured data (from zero to the last time point); Geom Mean is the geometric mean; CV is the coefficient of variation (relative standard deviation); LL is the lower limit; UL is the upper limit; σ^2 is the mean variance; σB^2 is the mean variance between subjects; σW^2 is the mean variance within subjects; CVT is the total coefficient of variation; and CVW is the coefficient of variation within subjects.
# [4] = Oral Administration 10.0 mg vs 3.0 mg IV, dose normalized
# [5] = Oral Administration 30.0 mg vs 3.0 mg IV, dose normalized
# [6] = Oral Administration 3.0 mg (Batch N0120 3.0 mg tablets)
# [7] = Oral Administration 10.0 mg (Batch N0126 10.0 mg tablets)
smiles,measurement,setting,value
"Nc1nc(Cl)nc2c1ncn2[C@H]1C[C@H](O)[C@@H](CO)O1 [Cladribine, 2-chloro-2′-deoxyadenosine]",solubility,[1],~49 mM
same,AUC(0-inf),[2]; Geom Mean,57.3 ng·h/mL
same,AUC(0-t),[2]; Geom Mean,54.7 ng·h/mL
same,Cmax,[2]; Geom Mean,23.2 ng/mL
same,Tmax,[2]; Mean ± SD,0.313 ± 0.113 h
same,half-life,[2]; Mean ± SD,6.69 ± 2.01 h
same,Ratio of Oral to I.V. AUCinf,[3]; [4],39.1
same,Ratio of Oral to I.V. AUCt,[3]; [4],39.4
same,Ratio of Oral to I.V. AUCinf,[3]; [5],34.5
same,Ratio of Oral to I.V. AUCt,[3]; [5],34.0
same,CVT (total coefficient of variation) of AUCinf,[3]; dose-adjusted PK parameter,29.2%
same,CVT (total coefficient of variation) of AUCt,[3]; dose-adjusted PK parameter,29.8%
same,CVT (total coefficient of variation) of Cmax,[3]; dose-adjusted PK parameter,43.0%
same,CVW (coefficient of variation within subjects) of AUCinf,[3]; dose-adjusted PK parameter,18.3%
same,CVW (coefficient of variation within subjects) of AUCt,[3]; dose-adjusted PK parameter,19.1%
same,CVW (coefficient of variation within subjects) of Cmax,[3]; dose-adjusted PK parameter,37.5%
same,AUC(0-inf),[3]; 3.0 mg IV infusion (1 hour),58.5 ng·h/mL
same,AUC(0-t),[3]; 3.0 mg IV infusion (1 hour),56.4 ng·h/mL
same,Cmax,[3]; 3.0 mg IV infusion (1 hour),21.4 ng/mL
same,Tmax,[3]; 3.0 mg IV infusion (1 hour),0.817 ± 0.397 h
same,half-life,[3]; 3.0 mg IV infusion (1 hour),6.5 ± 1.27 h
same,AUC(0-inf),[3]; [6],20.2 ng·h/mL
same,AUC(0-t),[3]; [6],19.2 ng·h/mL
same,Cmax,[3]; [6],5.61 ng/mL
same,Tmax,[3]; [6],0.548 ± 0.3 h
same,half-life,[3]; [6],5.85 ± 1.18 h
same,AUC(0-inf),[3]; [7],76.7 ng·h/mL
same,AUC(0-t),[3]; [7],74.5 ng·h/mL
same,Cmax,[3]; [7],21.2 ng/mL
same,Tmax,[3]; [7],0.558 ± 0.204 h
same,half-life,[3]; [7],5.6 ± 0.75 h
same,Ratio 10.0 mg/3.0 mg AUCinf,"[3]; oral doses, dose normalized",113.3
same,Ratio 10.0 mg/3.0 mg AUCt,"[3]; oral doses, dose normalized",115.8
same,Ratio 10.0 mg/3.0 mg Cmax,"[3]; oral doses, dose normalized",112.6
